What was measured:
Caco-2 cell monolayers = experiment: Transport of semaglutide across Caco-2 cell monolayers in the presence of fatty acid acylated amino acids; type: in vitro ADME; conditions: for Papp: permeation of semaglutide (100 μM), apical to basolateral, with 0.5 mM fatty acid acylated amino acid, pH 7.4; for permeation enhancing effect: on semaglutide across Caco-2 monolayers, compared among the fatty acid acylated amino acids tested
Experimental: (§1) Caco-2 cells were obtained from the American Type Culture Collection (Manassas, Va.). Cells were seeded in culturing flasks and passaged in Dulbecco's Modified Eagle′ medium supplemented with 10% fetal bovine serum, 1% penicillin/streptomycin (100 U/ml and 100 μg/ml, respectively), 1% L-glutamine and 1% nonessential amino acids. Caco-2 cells were seeded onto tissue culture treated polycarbonate filters in 12-well Transwell® plates (1.13 cm2, 0.4 μm pore size) at a density of 10^5 cells/well. Monolayers were grown in an atmosphere of 5% CO2-95% O2 at 37° C. Growth media were replaced every other day. The experiment was performed on day 10-14 after seeding of Caco-2 cells.
(§2) The amount of compound transported from the donor chamber (apical side) to the receiver chamber (basolateral side) was measured. The transport study was initiated by adding 400 μl solution (100 μM of semaglutide+0.5 mM fatty acid acylated amino acids) and 0.4 μCi/μl [3H]manntiol in transport buffer to the donor chamber and 1000 μl transport buffer to the receiver chamber. The transport buffer consisted of Hank's balanced saline solution containing 10 mM HEPES, […] to pH 7.4 after addition of compounds. The transport of [^3H]mannitol, a marker for paracellular transport, was measured to verify the integrity of the epithelium.
(§3) Before the experiment, the Caco-2 cells were equilibrated for 60 min with transport buffer on both sides of the epithelium. Buffer was then removed and the experiment initiated. Donor samples (20 μl) were taken at 0 min and at the end of the experiment. Receiver samples (200 μl) were taken every 15 min. The study was performed in an atmosphere of 5% CO2-95% O2 at 37° C. on a shaking plate (30 rpm).
(§4) In all samples with semaglutide and mannitol, the concentration was determined using a LOCI assay and scintillation counter, respectively.
(§5) Before and during the experiment the transepithelial electrical resistance (TEER) of the cell monolayers was monitored. In selected experiments, the transport buffer were changed to culturing medium after end of experiment and the TEER measured 24 h after experiment. The TEER was measured with EVOM™ Epithelial Voltohmmeter connected to Chopsticks.

[1] = as above; type: in vitro ADME; conditions: human, Caco-2; permeation of semaglutide (100 μM), apical to basolateral, permeation enhancer: None, pH 7.4
Experimental: as §1, §2, §3, §4, §5

| SMILES | Papp (Caco-2 cell monolayers) | permeation enhancing effect (Caco-2 cell monolayers) | Papp A→B at 100 μM [1] |
| --- | --- | --- | --- |
| CCCCCCCCCC(=O)N[C@@H](CC(N)=O)C(=O)[O-].[Na+] [Sodium N-decanoyl L-asparaginate] | 0.31 10^−8 cm/s |  |  |
| CCCCCCCCCC(=O)N[C@@H](CC(C)C)C(=O)[O-].[Na+] [Sodium N-decanoyl L-leucinate] | 2.12 10^−8 cm/s |  |  |
| CCCCCCCCCCCC(=O)N[C@@H](CC(C)C)C(=O)[O-].[Na+] [Sodium N-dodecanoyl L-leucinate] | 2.53 10^−8 cm/s |  |  |
| CCCCCCCCCCCC(=O)N[C@@H](Cc1ccccc1)C(=O)[O-].[Na+] [Sodium N-dodecanoyl L-phenylalaninate] | 5.60 10^−8 cm/s |  |  |

Continued, values first:

| Papp (Caco-2 cell monolayers) | permeation enhancing effect (Caco-2 cell monolayers) | Papp A→B at 100 μM [1] | SMILES |
| --- | --- | --- | --- |
| 63.88 10^−8 cm/s | greatest effect |  | CCCCCCCCCCCCCC(=O)N[C@@H](CC(C)C)C(=O)[O-].[Na+] [Sodium N-myristoyl L-leucinate] |
| 78.83 10^−8 cm/s | greatest effect |  | CCCCCCCCCCCCCC(=O)N[C@H](C(=O)[O-])C(C)C.[Na+] [Sodium N-myristoyl L-valinate] |
|  |  | 0.0065 ×10⁻⁶ cm/s | CC[C@H](C)[C@H](NC(=O)[C@H](Cc1ccccc1)NC(=O)[C@H](CCC(=O)O)NC(=O)[C@H](CCCCNC(=O)COCCOCCNC(=O)COCCOCCNC(=O)CC[C@H](NC(=O)CCCCCCCCCCCCCCCCC(=O)O)C(=O)O)NC(=O)[C@H](C)NC(=O)[C@H](C)NC(=O)[C@H](CCC(N)=O)NC(=O)CNC(=O)[C@H](CCC(=O)O)NC(=O)[C@H](CC(C)C)NC(=O)[C@H](Cc1ccc(O)cc1)NC(=O)[C@H](CO)NC(=O)[C@H](CO)NC(=O)[C@@H](NC(=O)[C@H](CC(=O)O)NC(=O)[C@H](CO)NC(=O)[C@@H](NC(=O)[C@H](Cc1ccccc1)NC(=O)[C@@H](NC(=O)CNC(=O)[C@H](CCC(=O)O)NC(=O)C(C)(C)NC(=O)[C@@H](N)Cc1cnc[nH]1)[C@@H](C)O)[C@@H](C)O)C(C)C)C(=O)N[C@@H](C)C(=O)N[C@@H](Cc1c[nH]c2ccccc12)C(=O)N[C@@H](CC(C)C)C(=O)N[C@H](C(=O)N[C@@H](CCCNC(=N)N)C(=O)NCC(=O)N[C@@H](CCCNC(=N)N)C(=O)NCC(=O)O)C(C)C [semaglutide, N-epsilon26-[2-(2-{2-[2-(2-{2-[(S)-4-carboxy-4-(17-carboxyheptadecanoylamino)butyrylamino]ethoxy}ethoxy)acetylamino]ethoxy}ethoxy)acetyl][Aib8,Arg34]GLP-1(7-37), reference compound] |

— patent US20150273069A1, “FATTY ACID ACYLATED AMINO ACIDS FOR ORAL PEPTIDE DELIVERY” (NOVO NORDISK A/S, priority 2012, published 2015)
